In patent US20070027201A1 (Wyeth, priority 2005, published 2007):
pIC50: −log10 of the molar value.

How the values were obtained:
progesterone receptor [1] = target: T1, progesterone receptor (Homo sapiens, UniProt P06401); assay: T47D alkaline phosphatase assay for progesterone receptor modulator (antagonist) activity; type: cell-based; parameters: Frozen T47D cells are thawed in a 37° C. water bath and diluted to 280,000 cells/mL in culture medium; endogenous in cells; host or cells: T47D cells; details: T47D cells, antagonist mode in the presence of 1 nM progesterone, 24 hours
T1 sequence (P06401 1-933): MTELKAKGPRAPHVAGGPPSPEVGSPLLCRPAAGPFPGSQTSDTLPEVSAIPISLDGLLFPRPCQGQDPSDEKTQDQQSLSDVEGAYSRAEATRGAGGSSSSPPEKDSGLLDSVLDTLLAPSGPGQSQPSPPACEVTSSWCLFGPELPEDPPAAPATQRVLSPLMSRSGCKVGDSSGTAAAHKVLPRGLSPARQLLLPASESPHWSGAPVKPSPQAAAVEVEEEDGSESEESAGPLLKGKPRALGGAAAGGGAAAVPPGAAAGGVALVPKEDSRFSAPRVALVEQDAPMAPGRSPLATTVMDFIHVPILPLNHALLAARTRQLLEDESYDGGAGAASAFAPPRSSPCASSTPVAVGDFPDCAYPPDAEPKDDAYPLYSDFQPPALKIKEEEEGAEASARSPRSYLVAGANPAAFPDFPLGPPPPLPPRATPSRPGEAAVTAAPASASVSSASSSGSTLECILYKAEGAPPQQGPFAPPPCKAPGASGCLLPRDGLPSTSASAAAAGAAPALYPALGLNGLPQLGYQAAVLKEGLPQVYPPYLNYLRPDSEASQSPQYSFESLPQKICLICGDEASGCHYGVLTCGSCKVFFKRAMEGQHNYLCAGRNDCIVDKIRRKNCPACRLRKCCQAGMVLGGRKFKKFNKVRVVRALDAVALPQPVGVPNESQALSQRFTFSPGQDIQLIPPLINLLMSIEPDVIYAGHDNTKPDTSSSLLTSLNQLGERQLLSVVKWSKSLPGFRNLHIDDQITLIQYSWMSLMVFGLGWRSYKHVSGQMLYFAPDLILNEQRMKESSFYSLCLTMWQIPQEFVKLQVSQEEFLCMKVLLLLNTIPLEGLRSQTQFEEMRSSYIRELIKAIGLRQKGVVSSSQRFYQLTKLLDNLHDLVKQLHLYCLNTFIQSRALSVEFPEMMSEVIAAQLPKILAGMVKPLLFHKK
Protocol: (§1) An assay was performed to identify compounds having progesterone receptor modulator activity. This assay identifies progestins or antiprogestins by determining a compound's effect on alkaline phosphatase activity in T47D cells.
(§2) Culture medium: DMEM:F12 (1:1) (GIBCO, BRL) supplemented with 5% (v/v) charcoal stripped fetal bovine serum (not heat-inactivated), 100 U/mL penicillin, 100 μg/mL streptomycin, and 2 mM the GlutaMax® reagent (GIBCO, BRL).
(§3) Alkaline phosphatase assay buffer: • I. 0.1M Tris-HCl, pH 9.8, containing 0.2% the Triton™ X-100 reagent • II. 0.1M Tris-HCl, pH 9.8, containing 4 mM p-nitrophenyl phosphate (Sigma).
(§4) Frozen T47D cells are thawed in a 37° C. water bath and diluted to 280,000 cells/mL in culture medium. To each well in a 96-well plate (Falcon, Becton Dickinson Labware), 180 μL of diluted cell suspension is added.
Twenty μL of reference or test compounds diluted in the culture medium is then added to each well. When testing for progestin antagonist activity, reference antiprogestins or test compounds are added in the presence of 1 nM progesterone. […]
Analysis of dose-response data. […] EC50 or IC50 values are calculated from the retransformed values. […]
Progesterone and trimegestone are reference progestins and RU486 is the reference antiprogestin. All reference compounds are run in full dose response curves and the EC50 and IC50 values are calculated. […]

progesterone receptor [2] = target: T1, progesterone receptor; assay: as above; type: cell-based; parameters: endogenous in cells; host or cells: T47D cells; details: T47D cells, antagonist mode in the presence of 1 nM progesterone, 24 hours
Protocol: as §1, §2, §3, §4
Twenty μL of reference or test compounds diluted in the culture medium is then added to each well. When testing for progestin antagonist activity, reference antiprogestins or test compounds are added in the presence of 1 nM progesterone. The cells are incubated at 37° C. in a 5% CO2/humidified atmosphere for 24 hours.
For high throughput screening, one concentration of each compound will be tested at 0.3 μg/mL. Based on an average molecular weight of 300 g/mol for the compounds in the library, the concentration is approximately 1 μM. Subsequently, active compounds will be tested in dose response assays to determine EC50 and IC50.
At the end of treatment, the medium is removed from the plate. Fifty μL of assay buffer I is added to each well. The plates are shaken in a titer plate shaker for 15 minutes. Then 150 μL of assay buffer II is added to each well. Optical density measurements are taken at 5 minute intervals for 30 minutes at a test wavelength of 405 nm.
Analysis of dose-response data. For reference and test compounds, a dose response curve is generated for dose (x-axis) vs. the rate of enzyme reaction (slope) (y-axis). Square root-transformed data are used for analysis of variance and nonlinear dose response curve fitting for both agonist and antagonist modes. Huber weighting is used to down-weight the effects of outliers. EC50 or IC50 values are calculated from the retransformed values. The JMP® software (SAS Institute, Inc.) is used for both one-way analysis of variance and non-linear dose response analysis in both single dose and dose response studies.
Progesterone and trimegestone are reference progestins and RU486 is the reference antiprogestin. All reference compounds are run in full dose response curves and the EC50 and IC50 values are calculated.
In the table provided above, the IC50 values show the relative progesterone receptor antagonist activity in this assay. Lower numbers are indicative of higher potency, i.e., greater PR antagonist activity. Further, the assay has a standard deviation of about ±6.

Structure (SMILES) | pIC50 (progesterone receptor [1]) | pIC50 (progesterone receptor [2])
CN(C#N)c1ccc(-c2ccc(C#N)n2C)cc1 [Example 38] | 7.05 | 
Cn1c(C#N)ccc1-c1c(F)cc(NS(C)(=O)=O)cc1F [Example 79, N-[4-(5-cyano-1-methyl-1H-pyrrol-2-yl)-3,5-difluorophenyl]-methanesulfonamide] |  | 7.80
CCS(=O)(=O)Nc1cc(F)c(-c2ccc(C#N)n2C)c(F)c1 [Example 80, N-[4-(5-cyano-1-methyl-1H-pyrrol-2-yl)-3,5-difluorophenyl]ethane-sulfonamide] |  | 7.72
CCCS(=O)(=O)Nc1cc(F)c(-c2ccc(C#N)n2C)c(F)c1 [Example 81, N-[4-(5-cyano-1-methyl-1H-pyrrol-2-yl)-3,5-difluorophenyl]propane-1-sulfonamide] |  | 8.21
CCCCS(=O)(=O)Nc1cc(F)c(-c2ccc(C#N)n2C)c(F)c1 [Example 82, N-[4-(5-cyano-1-methyl-1H-pyrrol-2-yl)-3,5-difluorophenyl]butane-1-sulfonamide] |  | 8.07
